Consider nine molecules from patent US8389544B2, “Isoquinolone compounds as subtype-selective agonists for melatonin receptors MT1 and MT2” (The Hong Kong University of Science and Technology, priority 2007, dated 2013).

Common to all, as to assay type: cell-based
Data set [1] concerns the target T1, MT1 receptor (Homo sapiens, UniProt P48039). The experiment in a line: cAMP assay, MT1. Details: expressed in transfected cells; host or cells: COS-7 (monkey kidney fibroblast). As to conditions: inhibition of forskolin-stimulated cAMP production; MT1-expressing cells.
The target in another data set is T2, MT2 receptor (Homo sapiens, UniProt P49286).
T2 sequence (P49286 1-362): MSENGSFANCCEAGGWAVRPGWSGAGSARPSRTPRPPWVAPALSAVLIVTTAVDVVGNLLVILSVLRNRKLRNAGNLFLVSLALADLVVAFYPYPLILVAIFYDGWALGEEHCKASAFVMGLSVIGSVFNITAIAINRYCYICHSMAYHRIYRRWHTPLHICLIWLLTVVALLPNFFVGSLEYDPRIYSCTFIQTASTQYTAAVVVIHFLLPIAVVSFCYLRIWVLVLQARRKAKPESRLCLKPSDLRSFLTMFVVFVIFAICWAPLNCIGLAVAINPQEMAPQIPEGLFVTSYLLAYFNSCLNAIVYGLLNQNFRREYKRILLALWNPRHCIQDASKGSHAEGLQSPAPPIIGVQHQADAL
The experiment in a line: cAMP assay, MT2. Details: expressed in transfected cells; host or cells: COS-7 (monkey kidney fibroblast). To be noted: inhibition of forskolin-stimulated cAMP production; MT2-expressing cells. In general terms: Changes in cAMP serve as a functional read-out for many G protein-coupled receptors.

A further data set relates to MT1/293. The experiment in a line: MTT cytotoxicity assay, MT1/293 cells. To be noted: percentage of untreated control cells. The procedure: This assay evaluates the cytotoxic effects of the novel isoquinolone compounds based on the cellular viability under chronic treatments. Viable cells but not dead cells can turn the substrate into a colored product, which yields higher absorbance. […] A low percentage indicates low cytoviability (or high cytotoxicity).
5. Cytotoxicity Test Using MTT Assay
Cells were seeded into clear 96-well plate at an appropriate density in 100 μl growth medium and were allowed to grow overnight. The novel isoquinolone compounds were diluted to desired concentrations using fresh growth medium, and these dilutions were used to replace the growth media in each well. After incubating for 24-96 h, 10 μl of the MTT labeling reagent (Roche) was added to each well and the cells were incubated in a CO2 incubator for 4 h. 100 μl solubilization buffer was then added into each well and incubated overnight for complete solubilization of the purple formazan crystals. […] Each condition was performed in triplicate in every experiment and the results were expressed as % of blank control±SD.

The target of data set [2] is T1, MT1 receptor. Description: ERK phosphorylation assay, MT1. Details: expressed in transfected cells. To be noted: HEK293 cells; isoquinolone 1 μM or 2-iodomelatonin 100 nM, 5 min; against unstimulated control cells. An excerpt: 3. ERK Phosphorylation Assay This assay indicates the ability of the novel compounds to activate MT1 or MT2 receptors by measuring downstream events of the activated receptor, in this case ERK phosphorylation. The amount of phosphorylated ERK1/2 was detected and quantified in western blots. The data in Table 2 is expressed as the fold stimulation against the unstimulated control cells. 6. Detection of ERK phosphorylation […] Stimulation was terminated by aspiration on ice and immediate lysis by 200 μl of 1× protein gel loading buffer. Lysates were denatured by boiling for 5 min and cooled at room temperature until loading. 30 μl of each lysate was separated on 12% SDS-PAGE and transferred to nitrocellulose membrane by electroblotting. Success of transfer was visualized by Ponceau S staining. All subsequent incubations were under gentle agitation (˜100 strokes/min). […] Primary antisera against phosphorylated- or total-ERK1/2 were incubated with the blocked membrane at an appropriate dilution (1:4000-1:2000) in Blotto for overnight at 4° C. The membrane was washed with fresh Blotto for 3 times of 15 min each, then incubated with secondary antiserum (horseradish peroxidase-conjugated anti-rabbit IgG) at the dilution of 1:1000 in 1×TBS for 1 h at room temperature. The membrane was quickly rinsed with excessive 1×TBS for 3 times, and followed by 4 washes of 1×TBS for 10 min. By the end, a premix of luminol-based chemiluminescence substrate solution was prepared (1 ml for every 8 cm^2 of membrane) and overlaid onto the washed membrane to incubate for 1 min. After removing excessive solution, the membrane was covered with saran wrap and an autograph with appropriate exposure was developed on X-ray film in dark room. The image was scanned and the band intensities quantified using ImageJ 1.34. Data was expressed as the percentage response of the vehicle-treated or untreated samples. Experiments were performed at least 3 times and the average responses±SEM were presented.

T1 sequence (P48039 whole entry): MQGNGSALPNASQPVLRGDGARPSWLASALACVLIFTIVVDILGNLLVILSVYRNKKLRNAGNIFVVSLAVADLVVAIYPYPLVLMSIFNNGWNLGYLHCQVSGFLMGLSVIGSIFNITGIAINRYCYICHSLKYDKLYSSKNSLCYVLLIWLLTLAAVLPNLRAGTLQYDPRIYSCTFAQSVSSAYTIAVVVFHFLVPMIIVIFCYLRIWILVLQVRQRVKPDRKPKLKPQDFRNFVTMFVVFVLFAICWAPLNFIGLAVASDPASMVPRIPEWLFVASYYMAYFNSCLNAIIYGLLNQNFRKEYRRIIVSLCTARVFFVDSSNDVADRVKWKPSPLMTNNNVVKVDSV

Consider `COc1cccc(COc2cc3ccn(C)c(=O)c3cc2OC)c1` [IS044], for which, on MT1 receptor [1], the “cAMP Assay MT1 % Inh” value is 72.9 ± 7.5%. Moreover, the “cAMP Assay MT2 % Inh” value on MT2 receptor was 62.5 ± 4.0%. Further, the “MTT Assay MT1/293 % Viability ± SEM” value in the data set on MT1/293 is reported as 112.6 ± 5.8%. Further, the “ERK Phosphorylation MT1 Fold Stim.” value on MT1 receptor [2] is 3.25 Fold.

For `COc1cccc(COc2c(OC)ccc3c(=O)n(C)ccc23)c1` [IS527], on MT1 receptor [1], the “cAMP Assay MT1 % Inh” value is reported as 28.3 ± 16.0%. The “cAMP Assay MT2 % Inh” value at MT2 receptor is 51.4 ± 12.1%. Also, in the data set on MT1/293, the “MTT Assay MT1/293 % Viability ± SEM” value was found to be 57.1 ± 3.0%. Further, the “ERK Phosphorylation MT1 Fold Stim.” value at MT1 receptor [2] is 2.47 Fold.

On to `COc1cc(COc2cc3ccn(C)c(=O)c3cc2OC)cc(OC)c1` [IS042], for which the “cAMP Assay MT1 % Inh” value at MT1 receptor [1] is recorded as 81.8 ± 6.2%. Further, the “cAMP Assay MT2 % Inh” value on MT2 receptor was found to be 58.7 ± 5.8%. The “MTT Assay MT1/293 % Viability ± SEM” value in the data set on MT1/293 came to 71.6 ± 4.7%. In addition, the “ERK Phosphorylation MT1 Fold Stim.” value at MT1 receptor [2] is 4.94 Fold.

For the molecule `COc1ccc2c(=O)n(C)ccc2c1OCc1ccc(C)cc1` [IS529], the “cAMP Assay MT1 % Inh” value at MT1 receptor [1] was determined as 34.0 ± 17.4%. For the same molecule, on MT2 receptor, the “cAMP Assay MT2 % Inh” value is given as 37.7 ± 11.9%. Also, the “MTT Assay MT1/293 % Viability ± SEM” value in the data set on MT1/293 is 54.9 ± 2.5%. For the same molecule, the “ERK Phosphorylation MT1 Fold Stim.” value at MT1 receptor [2] is given as 2.37 Fold.

For `COc1cccc(COc2cc3c(=O)n(C)ccc3cc2OC)c1` [IS521], on MT1 receptor [1], the “cAMP Assay MT1 % Inh” value came to 19.4 ± 17.4%. On MT2 receptor, the “cAMP Assay MT2 % Inh” value was determined as 63.2 ± 4.9%. In addition, the “MTT Assay MT1/293 % Viability ± SEM” value in the data set on MT1/293 is on record as 89.8 ± 8.3%. In addition, on MT1 receptor [2], the “ERK Phosphorylation MT1 Fold Stim.” value was found to be 3.80 Fold.

On to `Cn1ccc2cc(OC(=O)c3ccccc3)c(OC(=O)c3ccccc3)cc2c1=O` [IS039], for which the “cAMP Assay MT1 % Inh” value at MT1 receptor [1] is listed as 8.8 ± 5.8%. Moreover, the “cAMP Assay MT2 % Inh” value at MT2 receptor is listed as 4.2 ± 6.8%. In addition, the “MTT Assay MT1/293 % Viability ± SEM” value in the data set with MT1/293 stood at 108.5 ± 3.2%. Further, on MT1 receptor [2], the “ERK Phosphorylation MT1 Fold Stim.” value amounted to 2.75 Fold.

`COc1cc(COc2cc3c(=O)n(C)ccc3cc2OC)cc(OC)c1` [IS523]: on MT1 receptor [1], the “cAMP Assay MT1 % Inh” value worked out at 18.6 ± 14.7%. In addition, at MT2 receptor, the “cAMP Assay MT2 % Inh” value was determined as 50.8 ± 9.1%. In the data set with MT1/293, the “MTT Assay MT1/293 % Viability ± SEM” value came to 51.6 ± 1.1%. Besides, the “ERK Phosphorylation MT1 Fold Stim.” value on MT1 receptor [2] turned out to be 3.74 Fold.

As for `COc1cc2ccn(C)c(=O)c2cc1OCc1ccc(C(C)(C)C)cc1` [IS526], the “cAMP Assay MT1 % Inh” value at MT1 receptor [1] was 26.9 ± 24.1%. On MT2 receptor, the “cAMP Assay MT2 % Inh” value is reported as −63.9 ± 59.2%. In addition, the “MTT Assay MT1/293 % Viability ± SEM” value with MT1/293 was found to be 25.0 ± 4.4%.

As for `COc1cc(COc2c(OC)ccc3c(=O)n(C)ccc23)cc(OC)c1` [IS528], at MT1 receptor [1], the “cAMP Assay MT1 % Inh” value stood at 39.2 ± 12.0%. For the same molecule, the “cAMP Assay MT2 % Inh” value at MT2 receptor is 49.4 ± 13.2%. Besides, the “MTT Assay MT1/293 % Viability ± SEM” value with MT1/293 turned out to be 50.2 ± 5.7%. For the same molecule, the “ERK Phosphorylation MT1 Fold Stim.” value on MT1 receptor [2] is 1.73 Fold.
